Here are results for 14 compounds from PubChem BioAssay (NCI).

Holding throughout (experiment): DTP human tumour cell line panel, 48 h
The test system of experiment [1] is COLO 205 colon.
For experiment [2], the system named is HOP-62 NSCLC.
In experiment [3] the test system is HOP-92 NSCLC.
In experiment [4] the test system is HS 578T breast.
In experiment [5] the test system is LOX IMVI melanoma.
Experiment [6] has as its system MALME-3M melanoma.
Experiment [7] deals with MDA-N.
The test system of experiment [8] is NCI-H23 lung.
The subject of experiment [9] is NCI/ADR-RES ovarian.
The test system of experiment [10] is OVCAR-3 ovarian.
The test system of experiment [11] is PC-3 prostate.
Experiment [12] concerns RPMI-8226 leukemia.
Experiment [13] has as its system RXF 393 renal.
In experiment [14] the test system is SF-268 CNS.
For experiment [15], the system named is SF-539 CNS.
In experiment [16] the test system is SK-MEL-2 melanoma.
Experiment [17] concerns TK-10 renal.
Experiment [18] has as its system U251 CNS.
For experiment [19], the system named is UO-31 renal.

Usually TGI stands for the concentration at which net growth stops.

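Interpolation was linear, between the two tested concentrations surrounding the appropriate level; five concentrations were tested over 48 hours in 96-well plates. TGI marks complete inhibition of growth.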 Where a SMILES comes first, the peptide text is derived from it. The star is where a group is joined. Boc = CC(C)(C)OC(=O)*; tBu = CC(C)(C)*

Turning to `N#Cc1c(N)nc2n[nH]c(N)c2c1-c1ccccc1`, the TGI in experiment [1] was determined as 24.3 µM; in [2], 63.9 µM; in experiment [3], 8.01 µM; in experiment [4] it was 24.2 µM; in experiment [5], 19 µM; in [6], 22 µM. Besides, the TGI in experiment [7] was 33 µM; in experiment [8] it was 50.2 µM; in [9], 48.5 µM; in experiment [10], 20.5 µM; in experiment [11], 35.5 µM; in experiment [12], above 53.8 µM. Moreover, the TGI is 13.2 µM in experiment [13]; 29.2 µM in experiment [14]; 21.1 µM in [15]; 12.8 µM in experiment [16]; above 27.1 µM in experiment [17]; 92.2 µM in [18]. In experiment [19], the TGI is 32.3 µM.
With `O=S(=O)(/N=C(\NO)Nc1ccc(Cl)cc1)c1cc(S(=O)(=O)c2ccccc2)cs1`, the TGI in experiment [1] was found to be 34.2 µM; in experiment [2], 33.5 µM; in experiment [3] it was 31.5 µM; in experiment [4], 54.8 µM; in experiment [5], 39 µM; in [6] it was 28.5 µM. The TGI was 34.8 µM in experiment [7]; 41.9 µM in [8]; above 100 µM in experiment [9]; 31.1 µM in experiment [10]; 33.9 µM in [11]; 44.8 µM in experiment [12]. Moreover, the TGI in [13] was 31 µM; in [14], 37 µM; in [15], 32.4 µM; in [16], 45.9 µM; in experiment [17] it was 45.4 µM; in experiment [18], 30.6 µM. Moreover, the TGI in [19] came out at 27.6 µM.
Regarding `O=C(c1ccccc1)c1ccc2nc3n(c2c1)C(c1c(Cl)cccc1Cl)SC3` (stereo unspecified), the TGI is above 90.2 µM in experiment [1]; above 44.4 µM in [2]; above 100 µM in experiment [3]; above 65 µM in experiment [4]; 31.6 µM in experiment [5]; 31.3 µM in experiment [6]. Besides, the TGI in [7] was 3.84 µM; in experiment [8], 83.6 µM; in experiment [9] it was 35.8 µM; in experiment [10], above 100 µM; in [11], above 100 µM; in experiment [12], above 74.7 µM. Further, the TGI in experiment [13] was above 100 µM; in experiment [14] it was above 100 µM; in experiment [15] it was above 59.4 µM; in experiment [16], 78.5 µM; in experiment [17] it was above 100 µM; in experiment [18] it was above 100 µM. Besides, the TGI in experiment [19] was above 67.6 µM.
As for `C=C1C(=O)O[C@@H]2[C@H]1C[C@H](I)[C@@]1(C)CC[C@H](O1)[C@](C)(I)CCCC(C)[C@@H]2O` (stereo partly specified), the TGI in experiment [1] came to 4.95 µM; in experiment [2], 35.2 µM; in experiment [3], 3.52 µM; in [4], 40.1 µM; in experiment [5], 2.59 µM; in [6], 7.33 µM. The TGI in experiment [7] was 9.57 µM; in experiment [8] it was 20.5 µM; in [9] it was 9.84 µM; in experiment [10] it was 8.09 µM; in [11], 24.6 µM; in experiment [12], 9.3 µM. Moreover, the TGI in [13] was determined as 4.44 µM; in experiment [14] it was 27.2 µM; in experiment [15], 4.25 µM; in [16], 28.6 µM; in experiment [17], 3.57 µM; in experiment [18], 20 µM. This compound also gave a TGI in experiment [19] of 7.74 µM.
Take `CCCCCC(/C=C/[C@@H]1[C@@H](C(O)CCCCCC(=O)OC)C(=O)C[C@H]1O[Si](C)(C)C(C)(C)C)OCOCCOC` (stereo partly specified): the TGI in [1] stood at 49.6 µM; in experiment [2], 31.6 µM; in [3], 46.2 µM; in experiment [4], 27.2 µM; in experiment [5], 14.5 µM; in experiment [6], 30.6 µM. Moreover, the TGI is 24.4 µM in experiment [7]; 32.3 µM in [8]; 51.8 µM in [9]; 28.1 µM in experiment [10]; 27.4 µM in experiment [11]; above 25.7 µM in experiment [12]. Moreover, the TGI was 39.8 µM in experiment [13]; 28.4 µM in experiment [14]; 31 µM in [15]; 32.4 µM in [16]; 31.3 µM in experiment [17]; 27.4 µM in experiment [18]. In experiment [19], this compound showed a TGI of 28.9 µM.
Take `O=S(=O)(O)c1ccc2c(N=Nc3c(O)ccc4ccccc34)cccc2c1`: the TGI in experiment [1], in [2], in experiment [3], in [4], in experiment [5] and in experiment [6] was above 100 µM each time. Also, the TGI in experiment [7], in experiment [8], in [9], in [10], in experiment [11] and in experiment [12] was above 100 µM throughout. In addition, the TGI in experiment [13], in experiment [14], in experiment [15], in experiment [16], in experiment [17] and in experiment [18] was above 100 µM in each case. This compound also came in with a TGI in experiment [19] above 100 µM.
Regarding `CC1=NNC(=O)[C@H]2[C@H]1CCC1[C@@H]2CC[C@]2(C)[C@@H](O)CC[C@@H]12` (stereo partly specified), the TGI in experiment [1], in [2], in experiment [3], in experiment [4], in [5] and in [6] was above 100 µM each time. Also, the TGI in experiment [7], in experiment [8], in experiment [9], in [10], in experiment [11] and in experiment [12] was above 100 µM each time. Moreover, the TGI in [13], in [14], in experiment [15], in experiment [16], in [17] and in [18] was above 100 µM in each case. Further, in experiment [19], the TGI is above 100 µM.
Regarding `O/N=C1\CSc2ccccc2C1`, the concentration for total growth inhibition (TGI) in [1], in experiment [2], in experiment [3], in experiment [4], in experiment [5] and in experiment [6] was above 100 µM throughout. Further, the TGI in [7], in experiment [8], in [9], in experiment [10], in [11] and in experiment [12] was above 100 µM throughout. The TGI in experiment [13], in [14], in [15], in [16], in [17] and in experiment [18] was above 100 µM throughout. In [19], the TGI was above 100 µM.
Regarding `CC(OC(C)(C)C)C(NC(=O)C(N)CCCCNC(=O)OC(C)(C)C)C(=O)NC(Cc1ccccc1)C(=O)O` (stereo unspecified) (H-Lys(Boc)-Thr(tBu)-Phe-OH; configuration not given here), the TGI in experiment [1], in experiment [2], in experiment [3], in experiment [4], in experiment [5] and in experiment [6] was above 100 µM each time. Also, the TGI in experiment [7], in experiment [8], in experiment [9], in experiment [10], in [11] and in experiment [12] was above 100 µM throughout. Also, the TGI in experiment [13], in [14], in experiment [15], in experiment [16], in [17] and in [18] was above 100 µM in each case. The TGI in experiment [19] is above 100 µM.
Turning to `O=C(O)c1ccccc1CC(Cc1ccccc1)C(=O)O` (stereo unspecified), the TGI in experiment [1], in [2], in [3], in [4], in [5] and in [6] was above 100 µM each time. Besides, the TGI in experiment [7], in experiment [8], in experiment [9], in experiment [10], in experiment [11] and in experiment [12] was above 100 µM in each case. Moreover, the TGI in experiment [13], in experiment [14], in experiment [15], in [16], in experiment [17] and in [18] was above 100 µM throughout. For the same compound, in experiment [19], the TGI is above 100 µM.
On to `CN(CCCNC(=O)c1c2ccc3ccccc3c2nn1C)CCCNC(=O)c1c2ccc3ccccc3c2nn1C`, for which the TGI was determined as 3.54 µM in experiment [1]; 33.7 µM in experiment [2]; 12.7 µM in experiment [3]; 30.3 µM in experiment [4]; 9.18 µM in [5]; 8.71 µM in [6]. In addition, the TGI in [7] is 8.91 µM; in [8] it was 29.4 µM; in [9], 29.3 µM; in [10] it was 37.3 µM; in [11], 27.5 µM; in experiment [12], 4.86 µM. Further, the TGI in [13] was 20 µM; in experiment [14], 25.6 µM; in experiment [15], 17.8 µM; in experiment [16], 13.3 µM; in [17], 18.1 µM; in [18], 22.1 µM. The TGI in [19] was found to be 19.9 µM.
In the case of `CCCCOc1ccc(S(=O)(=O)/N=C(\N)Nc2ccc(Cl)cc2)cc1`, the TGI in [1] was above 100 µM; in experiment [2], 44.2 µM; in experiment [3] it was 23.7 µM; in experiment [4] it was 40.2 µM; in [5], 32.8 µM; in experiment [6] it was 28.5 µM. For the same compound, the TGI in [7] was 30.4 µM; in experiment [8] it was 29.9 µM; in [9], 31.5 µM; in [10], 31.8 µM; in experiment [11], 31 µM; in [12] it was 45.8 µM. Further, the TGI in [13] is 32.3 µM; in [14] it was 29.3 µM; in experiment [15] it was 54.9 µM; in experiment [16], 31.6 µM; in [17] it was 28.1 µM; in [18] it was 28 µM. Further, the TGI in experiment [19] amounted to 34.8 µM.
As for `CC(C)CCCC(C)[C@H]1CCC2[C@@H]3CCC4Cc5nc6c(nc5C[C@]4(C)C3CC[C@@]21C)CC1CC[C@@H]2C(CC[C@@]3(C)C2CC[C@@H]3O)[C@@]1(C)C6` (stereo partly specified), the TGI in [1], in experiment [2], in [3], in experiment [4], in experiment [5] and in experiment [6] was above 100 µM in each case. Besides, the TGI in [7], in [8], in experiment [9], in [10], in [11] and in experiment [12] was above 100 µM throughout. The TGI in experiment [13], in experiment [14], in [15], in [16], in experiment [17] and in experiment [18] was above 100 µM in each case. The same compound gave a TGI in [19] above 100 µM.
Consider `CCOC(=O)C(C)(Cc1ccc(O)cn1)NC(=O)c1ccccc1` (stereo unspecified), for which the TGI in experiment [1], in [2], in experiment [3], in experiment [4], in experiment [5] and in experiment [6] was above 100 µM throughout. In addition, the TGI in experiment [7], in experiment [8], in experiment [9], in [10], in [11] and in [12] was above 100 µM throughout. Besides, the TGI in [13], in experiment [14], in experiment [15], in experiment [16], in [17] and in [18] was above 100 µM throughout. For the same compound, in [19], the TGI is above 100 µM.
